Data: patent publication US20090257985A1, “METHODS OF REGULATING EXPRESSION OF GENES OR OF GENE PRODUCTS USING SUBSTITUTED TETRACYCLINE COMPOUNDS” (priority 2006, published 2009)

How the values were obtained:
rtTA2s-M2 [1] = assay: Activation of rtTA2s-M2 in vitro; format: cell-based; conditions: relative to doxycycline
rtTA2-MT2 = assay: rtTA-mediated gene activation, luciferase positive cell line MT2; format: cell-based
Description: (§1) FIGS. 2A-2D show a comparison of doxycycline and 9-t-butyl doxcycline in 34R and MT2 rtTA mutants. FIGS. 2A and 2B show the effect of doxycyline on 34R and MT2 mutants, respectively. FIGS. 2C and 2D show the effect of 9-t-butyl doxycycline on 34R and MT2 mutants, respectively.

rtTA = conditions: in vitro; relative to doxycycline
rtTA2s-M2 [2] = assay: Activation of rtTA2s-M2 gene in vivo, bioluminescence of bitransgenic mice rTA M2CaMK-1/LC1; conditions: 0.2 mg/mL in drinking water with 5% sucrose, seven days, compared with doxycycline at 2 mg/mL
Method: 9-t-butyl doxycycline was tested in bitransgenic mice with rTA M2CaMK-1/LC1. The mice expressed the rtTA2s-M2 gene under control of the forebrain specific α-CamKII promoter. In addition, the LC1 mouse had luciferase and cre genes under the control of the bi-directional promoter. The mice were adminstered doxycycline (2 mg/mL) for seven days in the drinking water with 5% sucrose or with 9-t-butyl doxycycline at (0.2 and 2 mg/mL). The mice were anaesthetized with avertin and injected with […] (IP) and placed in the bioluminescence chamber and measured 5 minutes later.

rtTA2-34R = assay: rtTA-mediated gene activation, luciferase positive cell line 34R; format: cell-based; conditions: FIGS. 2A and 2C
Description: as §1

[3] = test system: tet operator-linked nucleotide sequence; conditions: as demonstrated in U.S. Pat. No. 5,789,156; cited from earlier work
[4] = described in Mansuy and Bujard Curr. Op. Neurobiol. 10:593-96; cited from earlier work

5-phenylcarbamate doxcycline
activation of rtTA2s-M2 compared with doxycycline (rtTA2s-M2 [1]): two fold better activiator

9-t-butyl doxycycline
activity compared with doxycycline, MT2 rtTA mutant (rtTA2-MT2; FIGS. 2B and 2D): ten times more active
concentration at which full induction of the system occurred (rtTA2-MT2; rtTA2-MT2 system): 10 ng/mL
concentration inducing all rtTA's, lower than doxycycline (rtTA): 10 fold
activation response (luciferase bioluminescence) (rtTA2s-M2 [2]): better activation response
activity compared with doxycycline, 34R rtTA mutant (rtTA2-34R): ten times more active

Cc1c2c(c(O)c3c(O)cccc13)C(=O)[C@]1(O)C(=O)C(C(N)=O)=C(O)[C@@H](N(C)C)[C@@H]1C2 [anhydrotetracycline]
strength as inducing agent [3]: strong inducing agents

C[C@H]1c2cccc(O)c2C(=O)C2=C(O)[C@]3(O)C(=O)C(C(N)=O)=C(O)[C@@H](N(C)C)[C@@H]3[C@@H](O)[C@@H]21 [doxycycline]
penetration of the blood-brain barrier [4]: limited penetration of the blood-brain barrier
